Results as given in patent US20230270731A1, “THERAPEUTIC COMPOUNDS AND COMPOSITIONS” (eXIthera Pharmaceuticals, Inc., priority 2019, published 2023).

Experiments:
Format in all cases: physicochemical
[1] = Compatibility with IV systems
Experimental: (§1) The compatibility of the reconstituted Compound 1 formulation with two infusion bags (different volumes and material) and two IV lines was tested (Table 13) at c(Compound 1)=0.1 mg/mL. After injection of the reconstituted drug product solution into infusion bags filled with NS, the recovery of Compound 1 was measured i) directly after mixing with the infusion vehicle (to, Table 14) and ii) after Δt=[…] of contact time with the infusion bag (Table 15). Additionally, storage in an infusion bag at ambient temperature and lighting conditions was assessed for Δt=6 h (Table 15). The average values of % recovery are relative to the reconstituted drug product that has not been in contact with the tested materials.
The two IV systems were evaluated for compatibility with the reconstituted drug product solution by filling the IV lines with the diluted (NS) drug product solution and flowing Vflow through (FT)=101 mL through the respective IV system at a flow rate of 5 mL/min. Flow-through samples of Vsample=1 mL were collected i) immediately (VFT=0 mL), ii) after VFT=10 mL and iii) after VFT=[…]. Flow through samples were assayed for recovery of Compound 1 and compared to the infusion solution in the reservoir at t0 (Table 16).

[2] = Reconstitution and reconstitution stability of the lyophilized Compound 1 drug product; conditions: reconstituted drug product
Experimental: The lyophilized Compound 1 drug product was subjected to testing of reconstitution and to stability testing for 6 h after reconstituted with DI water VDIwater=5 mL.
The lyophilization cake readily reconstituted within 10-20 s. The solution during reconstitution appeared quite foamy and contained many bubbles, which cleared within approximately 2 min addition of the reconstitution solution. Residual micro-bubbles on the container wall can be removed by vortexing (2 s) or sonication (2 s). […] The pH of the reconstituted solution was measured with pH=6.81; the osmolality was determined to φ=295 mOsm/kg. The reconstituted solution was practically free of particulates as determined by liquid particle counting (LPC, HIAC: Vsample=5 mL, nruns=4, 1st run discarded, fdilution=10, Vnominal, container=2 mL) with a cumulative count of 3200 particles at a size of 10 μm and 667 particles at a size of 25 μm.
The recovery of Compound 1 was monitored for 24 h after reconstitution to test for the in-use stability of the reconstituted solution (Table 9)

[3] = Liquid injectable formulation: compounding, dilution into infusion vehicles, stability
Experimental: Compounding process for liquid formulations of Compound 1, designed for dilution into infusion vehicles was developed with 3.0 mg/mL of Compound 1 (or 3.13 mg/mL Compound 1 free base equivalent), phosphate buffer solution (PBS), and pH of 6.4-7.2. The compounding process was applied over a wide range of scales (25-500 mL).
The compounding of the drug product required a neutralization step using 0.5N sodium hydroxide solution and buffering with PBS to adjust the pH to values compatible with an IV infusion. The compounding process also required a filtration step, which also served as aseptic processing.
The compounded formulations were diluted into infusion vehicles: normal saline, 5% dextrose in water (D5W), and lactated Ringer's solution (buffered and unbuffered). The dilution into normal saline was carried out at 100-fold and 600-fold dilution.

[4] = Compatibility with vials and stoppers
Experimental: The compatibility of the reconstituted Compound 1 formulation with sterile manufacturing vials and stoppers (Table 17) was tested for a contact time of Δt=1 h at c(Compound 1, target)=10 mg/mL at ambient conditions. The average values of % recovery are relative to the reconstituted drug product that has not been in contact with the tested materials.

[5] = Compatibility with infusion bags; conditions: infus. bag1, t0 (Table 15)
[6] = Compatibility with sterilization filters
Experimental: The feasibility of aseptic processing was evaluated and three different filter materials were tested for compatibility with the reconstituted Compound 1 formulation.
Filter compatibility of the reconstituted Compound 1 drug product was tested with different filter material (Table 17) composed of polyethersulfone (PES), nylon, and polyvinylidene fluoride (PVDF). For this a volume of Vfilter pass=10 mL was passed through the respective filter and the first as well as the last 10 vol % of the filtered volume were assayed for recovery of Compound 1 (Table 12).
The average values of % recovery are relative to the reconstituted drug product that has not been in contact with the tested materials.

[7] = Compatibility with infusion bags
Experimental: as §1

[8] = Compatibility with infusion vehicles (NS, D5W)
Experimental: The compatibility of the reconstituted Compound 1 formulation with two infusion vehicles, normal saline (NS) and 5% dextrose in water (D5W) was tested after Δt=4 h for two concentration (high/low) at c(Compound 1, target)=0.1 mg/mL and c(Compound 1, target)=1.0 mg/mL and at ambient conditions (Table 10). The average values of % recovery are relative to the dilution of the reconstituted drug product into DI water at to.

Structure (SMILES): C[C@@H](NC(=O)N1C(=O)[C@H](Cc2ccnc(N)c2)[C@H]1C(=O)O)C1CCCCC1 [Compound 1, (2S,3R)-3-[(2-aminopyridin-4-yl)methyl]-1-{[(1R)-1-cyclohexylethyl]carbamoyl}-4-oxoazetidine-2-carboxylic acid]
- Avg. c(Compound 1, FB, Obs.) ([1]; IV#1, VFT = 0 mL, 5 mL/min): 0.09 mg/mL
- Avg. c(Compound 1, FB, Obs.) ([1]; IV#1, VFT = 10 mL, 5 mL/min): 0.09 mg/mL
- Avg. c(Compound 1, FB, Obs.) ([1]; IV#1, VFT = 100 mL, 5 mL/min): 0.09 mg/mL
- Avg. c(Compound 1, FB, Obs.) ([1]; IV#2, VFT = 0 mL, 5 mL/min): 0.09 mg/mL
- Avg. c(Compound 1, FB, Obs.) ([1]; IV#2, VFT = 10 mL, 5 mL/min): 0.09 mg/mL
- Avg. c(Compound 1, FB, Obs.) ([1]; IV#2, VFT = 100 mL, 5 mL/min): 0.09 mg/mL
- Avg. c(Compound 1, FB, Obs.) ([1]; infus. bag, t0 (IV#1), reservoir): 0.09 mg/mL
- Avg. c(Compound 1, FB, Obs.) ([1]; infus. bag, t0 (IV#2), reservoir): 0.09 mg/mL
- Avg. c(Compound 1, FB, Obs.) ([2]; t0): 9.65 mg/mL
- pH (Meas.) ([2]; t0): 6.80
- Avg. c(Compound 1, FB, Obs.) ([2]; t = 1 h): 9.47 mg/mL
- pH (Meas.) ([2]; t = 1 h): 6.79
- Avg. c(Compound 1, FB, Obs.) ([2]; t = 2 h): 9.20 mg/mL
- pH (Meas.) ([2]; t = 2 h): 6.80
- Avg. c(Compound 1, FB, Obs.) ([2]; t = 4 h): 9.19 mg/mL
- pH (Meas.) ([2]; t = 4 h): 6.79
- Avg. c(Compound 1, FB, Obs.) ([2]; t = 6 h): 9.28 mg/mL
- pH (Meas.) ([2]; t = 6 h): 6.79
- Avg. c(Compound 1, FB, Obs.) ([2]; t = 24 h): 8.99 mg/mL
- pH (Meas.) ([2]; t = 24 h): 6.85
- pH over time ([3]; diluted into normal saline, 0.03 mg/mL, ambient, 48 hours): constant
- purity over time ([3]; diluted into normal saline, 0.03 mg/mL, ambient, over 48 hours): unchanged
- time stable at ambient temperature ([3]; formulation diluted into normal saline, 0.03 mg/mL): at least 48 hours
- loss of Compound 1 in filtration step of compounding ([3]; liquid formulation 3.0 mg/mL, PBS, pH 6.4-7.2): minimal loss or no loss
- nominal degradation ([3]; liquid formulations, 2-8° C., at least one week): < 4%
- Avg. c(Compound 1, FB, Obs.) ([4]; Reconst. Soln., no contact with tested materials): 9.32 mg/mL
- Avg. c(Compound 1, FB, Obs.) ([4]; Stopper, t = 1 h, target 10 mg/mL, ambient): 9.28 mg/mL
- Avg. c(Compound 1, FB, Obs.) ([4]; Vial, t = 1 h, target 10 mg/mL, ambient): 9.28 mg/mL
- Avg. c(Compound 1, FB, Obs.) [5]: 0.09 mg/mL
- Avg. c(Compound 1, FB, Obs.) ([6]; Nylon filter, first 10% of 10 mL): 0.94 mg/mL
- Avg. c(Compound 1, FB, Obs.) ([6]; Nylon filter, last 10% of 10 mL): 0.95 mg/mL
- Avg. c(Compound 1, FB, Obs.) ([6]; PES filter, first 10% of 10 mL): 0.94 mg/mL
- Avg. c(Compound 1, FB, Obs.) ([6]; PES filter, last 10% of 10 mL): 0.95 mg/mL
- Avg. c(Compound 1, FB, Obs.) ([6]; PVDF filter, first 10% of 10 mL): 0.95 mg/mL
- Avg. c(Compound 1, FB, Obs.) ([6]; PVDF filter, last 10% of 10 mL): 0.95 mg/mL
- Avg. c(Compound 1, FB, Obs.) ([6]; Sample Soln. (pre-filtration)): 0.95 mg/mL
- back-pressure during filtration ([6]; any of the tested filters): No increase
- Avg. c(Compound 1, FB, Obs.) ([7]; Sample soln. (water), no contact with bags): 0.09 mg/mL
- Avg. c(Compound 1, FB, Obs.) ([7]; infus. bag1 (500 mL Viaflo, NS), t0, vs sample soln.): 0.09 mg/mL
- Avg. c(Compound 1, FB, Obs.) ([7]; infus. bag1, t = 10 min): 0.09 mg/mL
- Avg. c(Compound 1, FB, Obs.) ([7]; infus. bag1, t = 6 h, ambient): 0.09 mg/mL
- Avg. c(Compound 1, FB, Obs.) ([7]; infus. bag2 (50 mL Viaflex, NS), t0, vs sample soln.): 0.08 mg/mL
- Avg. c(Compound 1, FB, Obs.) ([7]; infus. bag2, t = 10 min): 0.08 mg/mL
- Avg. c(Compound 1, FB, Obs.) ([7]; infus. bag2, t = 6 h, ambient): 0.08 mg/mL
- adsorption of Compound 1 to infusion bag material ([7]; infusion bag #1 (Viaflo) compared with infusion bag #2 (Viaflex), immediately after contact): lesser extent of Compound 1 adsorption
- Avg. c(Compound 1, FB, Obs.) ([8]; target 0.1 mg/mL, D5W, t = 4 h, ambient): 0.09 mg/mL
- Avg. c(Compound 1, FB, Obs.) ([8]; target 0.1 mg/mL, NS, t = 4 h, ambient): 0.09 mg/mL
- Avg. c(Compound 1, FB, Obs.) ([8]; target 0.1 mg/mL, Water, t0): 0.09 mg/mL
- Avg. c(Compound 1, FB, Obs.) ([8]; target 0.1 mg/mL, Water, t = 4 h, ambient): 0.09 mg/mL
- Avg. c(Compound 1, FB, Obs.) ([8]; target 1.0 mg/mL, D5W, t = 4 h, ambient): 0.92 mg/mL
- Avg. c(Compound 1, FB, Obs.) ([8]; target 1.0 mg/mL, NS, t = 4 h, ambient): 0.92 mg/mL
- Avg. c(Compound 1, FB, Obs.) ([8]; target 1.0 mg/mL, Water, t0): 0.92 mg/mL
- Avg. c(Compound 1, FB, Obs.) ([8]; target 1.0 mg/mL, Water, t = 4 h, ambient): 0.92 mg/mL
